Our source for the IC50 values is ChEMBL document CHEMBL1155973, “Disubstituted pyrimidines as Lck inhibitors” (Bioorg Med Chem Lett, 2009).

One assay deals with Jurkat. The experiment in a line: Inhibition of antigen-stimulated IL-2 production in human Jurkat cells expressing MART-1 antigen specific TCR. It counts as functional, cell-based.
The target in assay [1] is T1, Tyrosine-protein kinase Lck (Homo sapiens, UniProt P06239). Nature of the assay: Inhibition of Lck.
The target in assay [2] is T1, Tyrosine-protein kinase Lck. Nature of the assay: Inhibition of Lck kinase activity.

T1 sequence (P06239 whole entry): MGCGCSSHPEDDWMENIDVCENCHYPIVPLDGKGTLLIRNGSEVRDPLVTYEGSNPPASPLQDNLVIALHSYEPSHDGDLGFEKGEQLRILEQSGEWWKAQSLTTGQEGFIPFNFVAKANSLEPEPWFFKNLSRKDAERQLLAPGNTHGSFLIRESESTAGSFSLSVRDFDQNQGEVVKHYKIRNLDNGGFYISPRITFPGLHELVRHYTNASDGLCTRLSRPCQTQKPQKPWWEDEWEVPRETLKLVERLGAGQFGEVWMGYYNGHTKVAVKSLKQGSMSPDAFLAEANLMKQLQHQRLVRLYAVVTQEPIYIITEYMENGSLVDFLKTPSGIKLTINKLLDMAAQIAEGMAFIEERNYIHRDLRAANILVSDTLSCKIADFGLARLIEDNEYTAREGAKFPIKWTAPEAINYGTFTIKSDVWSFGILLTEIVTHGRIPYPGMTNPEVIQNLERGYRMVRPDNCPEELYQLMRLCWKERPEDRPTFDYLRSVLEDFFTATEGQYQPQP

Turning to `C[C@H](Nc1nccc(-n2cnc3ccccc32)n1)[C@@H]1CN(C(=O)Nc2cccc3ccccc23)CCN1c1ccncc1`, the IC50 (in general, the concentration that inhibits the measured activity by half) came to 546 nM in the assay on Jurkat (Homo sapiens, Jurkat) and 0.2 nM in assay [1].

As for `O=C(OCc1ccccc1)N1CCCCC1CNc1nccc(-n2cnc3ccccc32)n1` (centres undefined), in assay [1], the IC50 was more than 20000 nM.

In the case of `C[C@H](Nc1nccc(-n2cnc3cc(-c4ccnc(N)n4)ccc32)n1)c1ccccc1`, the IC50 was 111 nM in the assay on Jurkat (Homo sapiens, Jurkat) and 1.5 nM in assay [1].

Consider `C[C@H](Nc1nccc(-n2cnc3cc(-c4ccnc(N)n4)ccc32)n1)[C@@H]1CN(C(=O)Nc2cccc3ccccc23)CCN1C`, for which the half-inhibitory concentration (IC50) in the assay with Jurkat (Homo sapiens, Jurkat) is 16 nM; in assay [1], 0.07 nM.

`C[C@H](Nc1nccc(-n2cnc3ccccc32)n1)C1CCCCC1` came in with a half-inhibitory concentration (IC50) in assay [1] of 243 nM.

As for `CC(Nc1nccc(-n2cnc3ccccc32)n1)C1CCCN(C(=O)Nc2ccccc2)C1` (centres undefined), in assay [1], the 50% inhibitory concentration (IC50) stood at 11 nM. Against the preceding compound, the IC50 is about 22-fold lower.

In the case of `CCN1CCN(c2ccc3c(c2)ncn3-c2ccnc(N[C@@H](C)c3ccccc3)n2)C1=O`, the half-inhibitory concentration (IC50) amounted to 167 nM in the assay with Jurkat (Homo sapiens, Jurkat) and 1 nM in assay [1].

`CCOC(=O)CN1CCN(C(=O)Nc2cccc3ccccc23)C[C@H]1[C@H](C)Nc1nccc(-n2cnc3ccccc32)n1`: the IC50 with Jurkat (Homo sapiens, Jurkat) stood at 847 nM; in assay [1] it was 0.45 nM.

On to `Cc1ccc2c(c1)ncn2-c1ccnc(N[C@@H](C)c2ccccc2)n1`, for which the IC50 in assay [2] and in assay [1] was 128 nM each time.

In the case of `C[C@H](Nc1nccc(-n2cnc3ccccc32)n1)[C@@H]1CN(C(=O)Nc2cccc3ccccc23)CCN1C`, the IC50 in the assay on Jurkat (Homo sapiens, Jurkat) is 111 nM; in assay [1], 0.06 nM.

Regarding `CN1CCN(C(=O)c2ccc3ccccc3c2)CC1CNc1nccc(-n2cnc3ccccc32)n1` (centres undefined), in assay [1], the concentration for half-maximal inhibition (IC50) was 10 nM.

Turning to `CCCCCCN1CCN(C(=O)Nc2cccc3ccccc23)C[C@H]1[C@H](C)Nc1nccc(-n2cnc3ccccc32)n1`, the 50% inhibitory concentration (IC50) in the assay on Jurkat (Homo sapiens, Jurkat) is more than 1000 nM; in assay [1], 1.8 nM.

With `CC(Nc1nccc(-n2cnc3ccccc32)n1)C1CCCN(C(=O)Cc2ccccc2)C1` (centres undefined), the IC50 in assay [1] stood at 800 nM.

Consider `CC(Nc1nccc(-n2cnc3ccccc32)n1)C1CCCN(C(=O)Oc2ccccc2)C1` (centres undefined), for which, in assay [1], half-maximal inhibition (IC50) was put at 46 nM.

Regarding `Cc1ccc2ncn(-c3ccnc(N[C@@H](C)c4ccccc4)n3)c2c1`, the IC50 in assay [2] and in assay [1] was 58 nM throughout.

In assay [1], `O=C(c1ccc2ccccc2c1)N1CCCC(CNc2nccc(-n3cnc4ccccc43)n2)C1` (centres undefined) displayed a half-maximal inhibitory concentration (IC50) of 106 nM.

Consider `c1ccc(CNc2nccc(-n3cnc4ccccc43)n2)cc1`, for which 827 nM corresponded to half-maximal inhibition in assay [1] (IC50).

Regarding `CC(Nc1nccc(-n2cnc3ccccc32)n1)C1CN(C(=O)Nc2ccc3ccccc3c2)CCN1C` (centres undefined), the IC50 in the assay on Jurkat (Homo sapiens, Jurkat) was more than 1000 nM; in assay [1], 75.2 nM.

`C[C@H](Nc1nccc(-n2cnc3ccccc32)n1)c1ccccc1`: inhibition in assay [1] was half-maximal at 153 nM (IC50).

On to `Cc1cc2ncn(-c3ccnc(N[C@@H](C)c4ccccc4)n3)c2cc1C`, for which the IC50 in assay [2] and in assay [1] was 2070 nM in each case.

As for `CC(Nc1nccc(-n2cnc3ccccc32)n1)C1CN(S(C)(=O)=O)CCN1C` (centres undefined), the IC50 is more than 1000 nM in the assay on Jurkat (Homo sapiens, Jurkat) and 22.5 nM in assay [1].

For `CC(Nc1nccc(-n2cnc3ccccc32)n1)C1CN(Cc2ccccc2)CCN1C` (centres undefined), the IC50 with Jurkat (Homo sapiens, Jurkat) was more than 10000 nM; in assay [1], 501 nM.

Consider `CCN1CCN(c2ccc3c(c2)ncn3-c2ccnc(N[C@@H](C)[C@@H]3CN(C(=O)Nc4cccc5ccccc45)CCN3C)n2)C1=O`, for which the IC50 was found to be 42 nM in the assay on Jurkat (Homo sapiens, Jurkat) and 0.4 nM in assay [1].

In the case of `CC(C)CN1CCN(C(=O)Nc2cccc3ccccc23)C[C@H]1[C@H](C)Nc1nccc(-n2cnc3ccccc32)n1`, the IC50 with Jurkat (Homo sapiens, Jurkat) came to 538 nM; in assay [1], 0.2 nM.

For `CC(=O)N1CCN(C(=O)Nc2cccc3ccccc23)C[C@H]1[C@H](C)Nc1nccc(-n2cnc3ccccc32)n1`, the IC50 in the assay with Jurkat (Homo sapiens, Jurkat) was more than 10000 nM; in assay [1], 115 nM.

In turn, `CC(Nc1nccc(-n2cnc3ccccc32)n1)C1CCCN(C(=O)NC2CCCCC2)C1` (centres undefined) showed a 50% inhibitory concentration (IC50) in assay [1] of 1260 nM.

In the case of `CC(Nc1nccc(-n2cnc3ccccc32)n1)C1CN(C)CCN1C` (centres undefined), the concentration for half-maximal inhibition (IC50) with Jurkat (Homo sapiens, Jurkat) was more than 10000 nM; in assay [1] it was more than 1000 nM.

With `O=C(OCc1ccccc1)N1CCC(CNc2nccc(-n3cnc4ccccc43)n2)CC1`, in assay [1], the IC50 was more than 20000 nM.

`C[C@H](Nc1nccc(-n2cnc3ccccc32)n1)[C@H]1CCCN(C(=O)Nc2cccc3ccccc23)C1` yielded an IC50 in assay [1] of 0.4 nM.

For `CCN1CCN(C(=O)Nc2cccc3ccccc23)C[C@H]1[C@H](C)Nc1nccc(-n2cnc3ccccc32)n1`, the IC50 with Jurkat (Homo sapiens, Jurkat) is 154 nM; in assay [1], 0.07 nM.

In the case of `CC(Nc1nccc(-n2cnc3ccccc32)n1)C1CN(C(=O)Nc2cccc3ccccc23)CCN1S(=O)(=O)c1ccccc1` (centres undefined), the IC50 in the assay with Jurkat (Homo sapiens, Jurkat) is more than 10000 nM; in assay [1] it was 26.5 nM.

On to `CC(Nc1nccc(-n2cnc3ccccc32)n1)C1CN(C(=O)Nc2cccc3ccccc23)CCN1C(=O)OCc1ccccc1` (centres undefined), for which the half-inhibitory concentration (IC50) is more than 10000 nM in the assay on Jurkat (Homo sapiens, Jurkat) and more than 1000 nM in assay [1].

Consider `C[C@H](Nc1nccc(-n2cnc3cc(-c4ccncc4)ccc32)n1)[C@@H]1CN(C(=O)Nc2cccc3ccccc23)CCN1C`, for which the IC50 was 8 nM in the assay on Jurkat (Homo sapiens, Jurkat) and 0.12 nM in assay [1].

Consider `CC(Nc1nccc(-n2cnc3ccccc32)n1)C1CN(C(=O)Nc2cccc3ccccc23)CCN1Cc1ccccc1` (centres undefined), for which the IC50 in the assay with Jurkat (Homo sapiens, Jurkat) was more than 1000 nM; in assay [1] it was 2.6 nM.

In the case of `CC(Nc1nccc(-n2cnc3ccccc32)n1)C1CN(C(=O)Nc2cccc3ccccc23)CCN1S(C)(=O)=O` (centres undefined), the IC50 with Jurkat (Homo sapiens, Jurkat) is more than 1000 nM; in assay [1] it was 11.8 nM.

`O=C(OCc1ccccc1)N1CCCC(CNc2nccc(-n3cnc4ccccc43)n2)C1` (centres undefined): in assay [1], inhibition was half-maximal at 650 nM (IC50).

With `C[C@@H](Nc1nccc(-n2cnc3ccccc32)n1)c1ccccc1`, it took 1770 nM to reach half-maximal inhibition in assay [1] (IC50).

Turning to `CC(Nc1nccc(-n2cnc3ccccc32)n1)C1CNCCN1C` (centres undefined), the IC50 in the assay on Jurkat (Homo sapiens, Jurkat) is more than 10000 nM; in assay [1], more than 1000 nM.

For `O=C(Nc1cccc2ccccc12)N1CCC(CNc2nccc(-n3cnc4ccccc43)n2)C1` (centres undefined), in assay [1], the IC50 is more than 10000 nM.

Turning to `CC(Nc1nccc(-n2cnc3ccccc32)n1)C1CCCN(C(=O)Nc2ccc3ccccc3c2)C1` (centres undefined), the IC50 in assay [1] worked out at 40 nM.

In assay [1], `CNC(=O)N1CCCC(C(C)Nc2nccc(-n3cnc4ccccc43)n2)C1` (centres undefined) registered an IC50 of 242 nM.

In turn, `C[C@H](Nc1nccc(-n2cnc3ccccc32)n1)c1cccc([N+](=O)[O-])c1` gave a 50% inhibitory concentration (IC50) in assay [1] of 47 nM.

With `C[C@H](Nc1nccc(-n2cnc3cc(-c4ccncc4)ccc32)n1)c1ccccc1`, the IC50 in the assay with Jurkat (Homo sapiens, Jurkat) is 98 nM; in assay [1] it was 3 nM.

`O=C(c1ccc2ccccc2c1)N1CCOC(CNc2nccc(-n3cnc4ccccc43)n2)C1` (centres undefined): in assay [1], the concentration for half-maximal inhibition (IC50) came to 203 nM. In other words, the sub-micromolar range.

With `Cc1nc2ccccc2n1-c1ccnc(N[C@@H](C)c2ccccc2)n1`, the IC50 in assay [2] and in assay [1] was more than 20000 nM each time.

In assay [1], `O=C(Nc1cccc2ccccc12)N1CCNC(CNc2nccc(-n3cnc4ccccc43)n2)C1` (centres undefined) gave an IC50 of 110 nM.

Regarding `CC(Nc1nccc(-n2cnc3ccccc32)n1)C1CCCN(C(=O)Nc2cccc3ccccc23)C1` (racemic), the IC50 in assay [1] was determined as 1 nM.

As to `CC(Nc1nccc(-n2cnc3ccccc32)n1)C1CN(C(=O)Nc2cccc3ccccc23)CCN1C` (single isomer, unassigned; diastereomer 1), the IC50 in the assay with Jurkat (jurkat) was 361 nM; in assay [1], 0.25 nM.

Turning to `CC(Nc1nccc(-n2cnc3ccccc32)n1)C1CN(C(=O)Nc2cccc3ccccc23)CCN1C` (single isomer, unassigned; diastereomer 2), the half-inhibitory concentration (IC50) in the assay on Jurkat (jurkat) was more than 1000 nM; in assay [1], 17.4 nM.

On to `CC(Nc1nccc(-n2cnc3ccccc32)n1)C1CCCN(C(=O)OCc2ccccc2)C1` (stereo in doubt; 12a), for which the half-inhibitory concentration (IC50) in assay [1] is 144 nM.

Consider `CC(Nc1nccc(-n2cnc3ccccc32)n1)C1CCCN(C(=O)OCc2ccccc2)C1` (stereo in doubt; 12b), for which half-maximal inhibition in assay [1] (IC50) was put at 2720 nM.
